From patent US12336982B2 (RODEO THERAPEUTICS CORPORATION, priority 2018, dated 2025)

biological target: T1, recombinant 15-PGDH (Homo sapiens, UniProt P15428); assay type: biochemical; settings: recombinant human 15-PGDH, in vitro; read-out: PDGH Assay-IC50
T1 sequence (P15428 1-266): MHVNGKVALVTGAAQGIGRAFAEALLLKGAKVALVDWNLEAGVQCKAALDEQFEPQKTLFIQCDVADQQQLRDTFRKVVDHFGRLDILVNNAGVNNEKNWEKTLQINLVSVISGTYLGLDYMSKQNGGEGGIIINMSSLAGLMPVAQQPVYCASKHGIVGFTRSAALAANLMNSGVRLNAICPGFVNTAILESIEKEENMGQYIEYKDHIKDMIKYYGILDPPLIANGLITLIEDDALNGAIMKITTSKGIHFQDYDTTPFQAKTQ
Source text: The Recombinant 15-PGDH is human unless otherwise specified.

Structure (SMILES)	IC50 [nM]
Nc1c([S@+]([O-])C2CCC2)sc2nc(-c3cnc(NCCO)nc3)cc(-c3cccnc3)c12 (stereo in doubt) [Example 103]	< 2.5
Nc1c([S+]([O-])C2CCC2)sc2nc(-c3cccnc3)cc(C3CCOCC3)c12 (centres unmarked) [Example 43]	< 2.5
Nc1c([S+]([O-])C2CCC2)sc2nc(-c3cnc(NCCO)nc3)cc(-c3ccccc3)c12 (centres unmarked) [Example 44]	< 2.5
CN(C)CCNc1ncc(-c2cc(-c3ccccc3)c3c(N)c([S+]([O-])C4CCC4)sc3n2)cn1 (centres unmarked) [Example 45]	≥ 10
COCCC[S+]([O-])c1sc2nc(-c3cnc(N)nc3)cc(-c3ccc(F)cc3)c2c1N (centres unmarked) [Example 46]	< 2.5
CN(C)CCOc1ncc(-c2cc(-c3ccccc3)c3c(N)c([S+]([O-])C4CCC4)sc3n2)cn1 (centres unmarked) [Example 47]	2.5 to 10
CN1CCN(c2ncc(-c3cc(-c4ccccc4)c4c(N)c([S@+]([O-])C5CCC5)sc4n3)cn2)CC1 [Example 48]	< 2.5
CN1CCN(c2ncc(-c3cc(-c4ccccc4)c4c(N)c([S@@+]([O-])C5CCC5)sc4n3)cn2)CC1 [Example 49]	≥ 10
Nc1c([S+]([O-])C2CCC2)sc2nc(-c3cccnc3)cc(-c3cccnc3)c12 (centres unmarked) [Example 50]	< 2.5
Nc1c([S@+]([O-])C2CCC2)sc2nc(-c3cnc(NCCO)nc3)cc(-c3ccccc3)c12 [Example 51]	< 2.5
Nc1c([S@@+]([O-])C2CCC2)sc2nc(-c3cnc(NCCO)nc3)cc(-c3ccccc3)c12 [Example 52]	≥ 10
CNC(=O)c1ncc(-c2cc(-c3ccccc3)c3c(N)c([S+]([O-])C4CCC4)sc3n2)cn1 (centres unmarked) [Example 53]	< 2.5
COCCC[S@@+]([O-])c1sc2nc(-c3cccnc3)nc(-c3ccccc3)c2c1N [Example 54]	< 2.5
COCC[S@@+]([O-])c1sc2nc(-c3cccnc3)nc(-c3ccccc3)c2c1N [Example 55]	< 2.5
COCCC[S+]([O-])c1sc2nc(-c3cccnc3)cc(C(F)(F)F)c2c1N (centres unmarked) [Example 56]	< 2.5
COCC[S+]([O-])c1sc2nc(-c3cccnc3)cc(C(F)(F)F)c2c1N (centres unmarked) [Example 57]	< 2.5
Nc1c([S+]([O-])C2CCC2)sc2nc(-c3cccnc3)cc(C(F)(F)F)c12 (centres unmarked) [Example 58]	< 2.5
CC(=O)N1CCC(c2cc(-c3ccc(F)cc3)c3c(N)c([S+]([O-])C4CCC4)sc3n2)CC1 (centres unmarked) [Example 59]	≥ 10
CN(C)CCOc1ccc(-c2cc(-c3ccccc3)c3c(N)c([S+]([O-])C4CCC4)sc3n2)cn1 (centres unmarked) [Example 60]	2.5 to 10
CN(C)C(=O)c1ncc(-c2cc(-c3ccccc3)c3c(N)c([S+]([O-])C4CCC4)sc3n2)cn1 (centres unmarked) [Example 61]	2.5 to 10
COCCC[S@@+]([O-])c1sc2nc(-c3cnc(N)nc3)cc(-c3ccc(F)cc3)c2c1N [Example 62]	< 2.5
Nc1c([S+]([O-])C2CCC2)sc2nc(-c3ccc(NCCO)nc3)cc(-c3ccccc3)c12 (centres unmarked) [Example 63]	< 2.5
Cn1cnc(-c2cc(-c3cncnc3)nc3sc([S@+]([O-])C4CCC4)c(N)c23)c1 [Example 64]	< 2.5
Cn1cnc(-c2cc(-c3cncnc3)nc3sc([S@@+]([O-])C4CCC4)c(N)c23)c1 [Example 65]	≥ 10
Nc1ncc(-c2cc(-c3ccc(F)cn3)c3c(N)c([S+]([O-])C4CCC4)sc3n2)cn1 (centres unmarked) [Example 66]	< 2.5

Structure (SMILES)	IC50 [nM]
Nc1ncc(-c2cc(-c3cncc(F)c3)c3c(N)c([S+]([O-])C4CCC4)sc3n2)cn1 (centres unmarked) [Example 67]	< 2.5
CS(=O)(=O)Nc1ncc(-c2cc(-c3ccccc3)c3c(N)c([S@+]([O-])C4CCC4)sc3n2)cn1 [Example 68]	< 2.5
CS(=O)(=O)Nc1ncc(-c2cc(-c3ccccc3)c3c(N)c([S@@+]([O-])C4CCC4)sc3n2)cn1 [Example 69]	≥ 10
COCCC[S+]([O-])c1sc2nc(-c3ccc(NCCO)nc3)cc(-c3ccc(F)cc3)c2c1N (centres unmarked) [Example 70]	2.5 to 10
COCCC[S+]([O-])c1sc2nc(-c3cnc(NCCO)nc3)cc(-c3ccc(F)cc3)c2c1N (centres unmarked) [Example 71]	2.5 to 10
COCC[S+]([O-])c1sc2nc(-c3cncnc3)cc(-c3ccccc3)c2c1N (centres unmarked) [Example 72]	< 2.5
COCC[S+]([O-])c1sc2nc(-c3cnc(N)nc3)cc(-c3ccccc3)c2c1N (centres unmarked) [Example 73]	< 2.5
COCCC[S+]([O-])c1sc2nc(-c3cnc4c(cnn4C)c3)cc(-c3cccnc3)c2c1N (centres unmarked) [Example 74]	< 2.5
COCCC[S+]([O-])c1sc2nc(-c3cnc4nn(C)cc4c3)cc(-c3cccnc3)c2c1N (centres unmarked) [Example 75]	< 2.5
Nc1ncc(-c2cc(-c3ncccc3F)c3c(N)c([S+]([O-])C4CCC4)sc3n2)cn1 (centres unmarked) [Example 76]	< 2.5
Nc1ncc(-c2cc(-c3ncccc3F)c3c(N)c([S+]([O-])C4CCC4)sc3n2)cn1 (centres unmarked) [Example 77]	< 2.5
COCCC[S@@+]([O-])c1sc2nc(-c3cccnc3)cc(C(F)(F)F)c2c1N [Example 78]	< 2.5
COCCC[S@+]([O-])c1sc2nc(-c3cccnc3)cc(C(F)(F)F)c2c1N [Example 79]	≥ 10
COCC[S@@+]([O-])c1sc2nc(-c3cccnc3)cc(C(F)(F)F)c2c1N [Example 80]	< 2.5
COCC[S@+]([O-])c1sc2nc(-c3cccnc3)cc(C(F)(F)F)c2c1N [Example 81]	≥ 10
Nc1c([S+]([O-])C2CCC2)sc2nc(-c3cnc(NCCO)nc3)cc(-c3ccccn3)c12 (centres unmarked) [Example 82]	< 2.5
Nc1c([S+]([O-])C2CCC2)sc2nc(-c3ccc(NCCO)nc3)cc(-c3ccccn3)c12 (centres unmarked) [Example 83]	< 2.5
Nc1c([S+]([O-])C2CCC2)sc2nc(-c3cncnc3)cc(-c3cccnc3)c12 (centres unmarked) [Example 84]	< 2.5
COCC[S@@+]([O-])c1sc2nc(-c3cncnc3)cc(-c3ccccc3)c2c1N [Example 85]	< 2.5
COCC[S@+]([O-])c1sc2nc(-c3cncnc3)cc(-c3ccccc3)c2c1N [Example 86]	≥ 10
COCC[S@@+]([O-])c1sc2nc(-c3cnc(N)nc3)cc(-c3ccccc3)c2c1N [Example 87]	< 2.5
COCC[S@+]([O-])c1sc2nc(-c3cnc(N)nc3)cc(-c3ccccc3)c2c1N [Example 88]	≥ 10
Cn1cc(-c2cc(-c3cccnc3)c3c(N)c([S+]([O-])C4CCC4)sc3n2)ccc1=O (centres unmarked) [Example 89]	< 2.5
Cn1ccc(-c2cc(-c3cccnc3)c3c(N)c([S+]([O-])C4CCC4)sc3n2)cc1=O (centres unmarked) [Example 90]	2.5 to 10
COCCC[S+]([O-])c1sc2nc(-c3cncnc3)cc(-c3ncccn3)c2c1N (centres unmarked) [Example 91]	< 2.5

Structure (SMILES)	IC50 [nM]
Nc1c([S+]([O-])C2CCC2)sc2nc(-c3cnc(NCCO)nc3)cc(-c3ccccn3)c12 (centres unmarked) [Example 92]	< 2.5
CS(=O)(=O)Nc1ncc(-c2cc(-c3cccnc3)c3c(N)c([S+]([O-])C4CCC4)sc3n2)cn1 (centres unmarked) [Example 93]	< 2.5
Nc1c([S@+]([O-])C2CCC2)sc2nc(-c3cnc(NCCO)nc3)cc(-c3ccccn3)c12 [Example 94]	< 2.5
Nc1c([S@@+]([O-])C2CCC2)sc2nc(-c3cnc(NCCO)nc3)cc(-c3ccccn3)c12 [Example 95]	≥ 10
Nc1c([S@@+]([O-])C2CCC2)sc2nc(-c3ccc(NCCO)nc3)cc(-c3ccccn3)c12 [Example 96]	< 2.5
Nc1c([S@+]([O-])C2CCC2)sc2nc(-c3ccc(NCCO)nc3)cc(-c3ccccn3)c12 [Example 97]	< 2.5
Nc1c([S+]([O-])C2CCC2)sc2nc(-c3cncnc3)cc(-c3ncccn3)c12 (centres unmarked) [Example 98]	< 2.5
Cc1ncc(-c2cc(-c3ccccc3)c3c(N)c([S+]([O-])C4CCC4)sc3n2)cn1 (centres unmarked) [Example 99]	< 2.5
COC(=O)Nc1ccc(-c2cc(-c3cccnc3)c3c(N)c([S+]([O-])C4CCC4)sc3n2)cn1 (centres unmarked) [Example 100]	< 2.5
COCCC[S@@+]([O-])c1sc2nc(-c3cnc4c(cnn4C)c3)cc(-c3cccnc3)c2c1N [Example 101]	< 2.5
COCCC[S@+]([O-])c1sc2nc(-c3cnc4c(cnn4C)c3)cc(-c3cccnc3)c2c1N [Example 102]	≥ 10
Nc1c([S@@+]([O-])C2CCC2)sc2nc(-c3cnc(NCCO)nc3)cc(-c3cccnc3)c12 [Example 104]	≥ 10
COCCC[S+]([O-])c1sc2nc(-c3ccc(NC(=O)OC)nc3)cc(-c3cccnc3)c2c1N (centres unmarked) [Example 105]	2.5 to 10
COCCC[S+]([O-])c1sc2nc(-c3cncnc3)cc(C3CC3)c2c1N (centres unmarked) [Example 106]	< 2.5
COCCC[S+]([O-])c1sc2nc(-c3cnc(N)nc3)cc(C3CC3)c2c1N (centres unmarked) [Example 107]	< 2.5
CS(=O)(=O)Nc1ncc(-c2cc(-c3ccccn3)c3c(N)c([S+]([O-])C4CCC4)sc3n2)cn1 (centres unmarked) [Example 108]	< 2.5
COCC[S+]([O-])c1sc2nc(-c3cncnc3)cc(C3CC3)c2c1N (centres unmarked) [Example 109]	< 2.5
COCC[S+]([O-])c1sc2nc(-c3cnc(N)nc3)cc(C3CC3)c2c1N (centres unmarked) [Example 110]	< 2.5
COCCC[S@@+]([O-])c1sc2nc(-c3cncnc3)cc(-c3ncccn3)c2c1N [Example 111]	< 2.5
COCCC[S@+]([O-])c1sc2nc(-c3cncnc3)cc(-c3ncccn3)c2c1N [Example 112]	≥ 10
COC(=O)Nc1ncc(-c2cc(-c3ccccn3)c3c(N)c([S+]([O-])C4CCC4)sc3n2)cn1 (centres unmarked) [Example 113]	2.5 to 10
Nc1c([S+]([O-])C2CCC2)sc2nc(-c3cncnc3)cc(-c3ccc(C4COC4)cc3)c12 (centres unmarked) [Example 114]	< 2.5
Nc1c([S+]([O-])C2CCC2)sc2nc(-c3cnc(NCCO)nc3)cc(-c3cncc(F)c3)c12 (centres unmarked) [Example 115]	< 2.5
COCCC[S+]([O-])c1sc2nc(-c3cnc4c(cnn4C)c3)cc(-c3ccccc3)c2c1N (centres unmarked) [Example 116]	2.5 to 10
